Experimental data taken from US9790221B2, “Heteroaryl compounds as IRAK inhibitors and uses thereof” (Merck Patent GmbH, priority 2014, dated 2017).

Columns and labels:
[1] = target: IRAK4 (Homo sapiens (Human), UniProt Q9NWZ3); assay: IRAK4 enzymatic assay; assay type: biochemical
Procedure: IRAK4 is a human purified recombinant enzyme ([…]. IRAK4 hydrolyses ATP, autophosphorylates and phosphorylates a Serine/Threonine generic peptidic substrate (STK: 61ST1BLC from CisBio International based in Bagnols/Cèze FR).
Measurement of IRAK-4 inhibition was performed in streptavidin coated 384well FlashPlate (PerkinElmer #SMP410A). His-TEV-IRAK4 (20 ng/well), ATP (2 μM, [^33P]ATP 0.25 µCi/well), STK1-biotin peptide (300 nM) and compounds in DMSO (range of concentrations from 20 µM to 1 nM) or controls (2% DMSO) were incubated for 3 hours at 30° C. in assay buffer: Hepes pH7.0 50 mM, Fatty acid-free BSA 0.1%, Dithiothreitol DTT 2 mM, MgCl2 10 mM, EGTA 0.5 mM, Tween-20 0.01%, MnCl2 5 mM.
Kinase reaction was stopped by addition of EDTA. Supernatant was discarded, plates were washed three times with 150 mM NaCl and radioactivity was then measured in a Microbeta Trilux reader.

[2] = target: IRAK1 (His-TEV-IRAK1 (194-712)) (Homo sapiens (Human), UniProt P51617); assay: IRAK1 enzymatic assay; assay type: biochemical
IRAK1 (His-TEV-IRAK1 (194-712)), sequence (P51617 194-712): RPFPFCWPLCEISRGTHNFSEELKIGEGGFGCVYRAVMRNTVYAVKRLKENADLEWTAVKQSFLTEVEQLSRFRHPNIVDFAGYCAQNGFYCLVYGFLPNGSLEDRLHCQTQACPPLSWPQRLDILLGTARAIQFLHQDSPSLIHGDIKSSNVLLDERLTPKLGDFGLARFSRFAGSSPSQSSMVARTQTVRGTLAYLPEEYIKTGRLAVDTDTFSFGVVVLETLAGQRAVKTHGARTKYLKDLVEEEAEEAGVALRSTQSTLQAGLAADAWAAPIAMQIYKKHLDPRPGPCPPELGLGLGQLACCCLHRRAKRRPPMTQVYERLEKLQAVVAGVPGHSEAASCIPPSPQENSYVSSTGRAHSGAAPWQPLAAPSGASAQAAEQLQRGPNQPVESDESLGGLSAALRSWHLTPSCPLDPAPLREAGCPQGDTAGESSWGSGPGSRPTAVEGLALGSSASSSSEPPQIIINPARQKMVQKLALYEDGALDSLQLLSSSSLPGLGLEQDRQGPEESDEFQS
Procedure: IRAK1 is a human purified recombinant enzyme (His-TEV-IRAK1 (194-712)). In this assay, IRAK-1 hydrolyses ATP and autophosphorylates. Measurement of IRAK-1 inhibition was performed in streptavidin coated 384well FlashPlate (PerkinElmer #SMP410A).
His-TEV-IRAK-1 (15 ng/well), ATP (1 μM, [33P]ATP 0.25 μCi/well) and compounds in DMSO (range of concentrations from 20 µM to 1 nM) or controls (2% DMSO) were incubated for 3 hours at 30° C. in assay buffer: Hepes pH7.0 50 mM, Fatty acid-free BSA 0.1%, Dithiothreitol DTT 2 mM, MgCl2 10 mM, EGTA 0.5 mM, Triton-X-100 0.01%. Kinase reaction was stopped by addition of EDTA. Supernatant was discarded, plates were washed three times with 150 mM NaCl and radioactivity was then measured in a Microbeta Trilux reader.

IRAK4, sequence (Q9NWZ3 whole entry): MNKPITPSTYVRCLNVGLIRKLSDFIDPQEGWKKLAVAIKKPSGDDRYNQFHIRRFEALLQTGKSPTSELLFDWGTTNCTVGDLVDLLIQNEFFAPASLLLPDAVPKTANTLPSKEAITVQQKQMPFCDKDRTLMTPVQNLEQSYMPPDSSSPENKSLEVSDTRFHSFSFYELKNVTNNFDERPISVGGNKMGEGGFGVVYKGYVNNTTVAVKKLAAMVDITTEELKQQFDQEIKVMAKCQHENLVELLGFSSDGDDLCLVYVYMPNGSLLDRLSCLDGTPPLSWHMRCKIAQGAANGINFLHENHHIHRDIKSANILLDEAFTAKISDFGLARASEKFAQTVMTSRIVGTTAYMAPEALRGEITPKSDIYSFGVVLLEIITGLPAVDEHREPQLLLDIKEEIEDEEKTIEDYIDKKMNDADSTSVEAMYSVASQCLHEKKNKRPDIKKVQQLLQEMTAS

| Compound | IC50 [1] [nM] | IC50 [2] [nM] |
| --- | --- | --- |
| Cn1cc(-c2cccc(-c3ncc(-c4cnn(C)c4)c(NCC4CCNCC4F)n3)c2)cn1 (stereo not drawn) [Example 229] | 100 to 1000 | > 5000 |
| Cn1cc(-c2cccc(-c3ncc(-c4cnn(C)c4)c(N4CCC[C@H]4CO)n3)c2)cn1 [Example 230] | 1000 to 5000 | > 5000 |
| Cn1cc(-c2cccc(-c3ncc(-c4cnn(C)c4)c(NCC4(F)CCNCC4)n3)c2)cn1 [Example 231] | 1000 to 5000 | > 5000 |
| COC(=O)[C@@H]1CCC[C@H](Nc2nc(-c3cccc(-c4cnn(C)c4)c3)ncc2-c2cnn(C)c2)C1 [Example 232] | < 100 | 100 to 1000 |
| Cn1cc(-c2cccc(-c3ncc(-c4cnn(C)c4)c(NCC4CCN(S(C)(=O)=O)CC4F)n3)c2)cn1 (stereo not drawn) [Example 234] | < 100 | 1000 to 5000 |
| CC(=O)N1CCC(CNc2nc(-c3cccc(-c4cnn(C)c4)c3)ncc2-c2cnn(C)c2)C(F)C1 (stereo not drawn) [Example 235] | 100 to 1000 | 1000 to 5000 |
| Cn1cc(-c2cccc(-c3ncc(-c4cnn(C)c4)c(NCC4(F)CCN(S(C)(=O)=O)CC4)n3)c2)cn1 [Example 236] | 100 to 1000 | 1000 to 5000 |
| CC(=O)N1CCC(F)(CNc2nc(-c3cccc(-c4cnn(C)c4)c3)ncc2-c2cnn(C)c2)CC1 [Example 237] | 100 to 1000 | 1000 to 5000 |
| Cn1cc(-c2cccc(-c3ncc(-c4cnn(C)c4)c(NCC4(O)CCNCC4)n3)c2)cn1 [Example 240] | 100 to 1000 | > 5000 |
| Cn1cc(-c2cccc(-c3ncc(-c4cnn(C)c4)c(N4CC[C@@H](N)C4)n3)c2)cn1 [Example 241] | 100 to 1000 | 1000 to 5000 |
| CC(=O)N[C@@H]1CCN(c2nc(-c3cccc(-c4cnn(C)c4)c3)ncc2-c2cnn(C)c2)C1 [Example 246] | 1000 to 5000 | > 5000 |
| Cn1cc(-c2cccc(-c3ncc(-c4cnn(C)c4)c(N4CC[C@@H](NS(C)(=O)=O)C4)n3)c2)cn1 [Example 247] | 100 to 1000 | 1000 to 5000 |
| Cn1cc(-c2cccc(-c3ncc(-c4cnn(C)c4)c(NCC4(O)CCN(S(C)(=O)=O)CC4)n3)c2)cn1 [Example 249] | 100 to 1000 | 1000 to 5000 |
| Cn1cc(-c2cccc(-c3ncc(-c4cnn(C)c4)c(N4CCC(NS(C)(=O)=O)CC4)n3)c2)cn1 [Example 250] | 100 to 1000 | 1000 to 5000 |
| Cn1cc(-c2cccc(-c3ncc(-c4cnn(C)c4)c(NCCC4CCCCN4)n3)c2)cn1 (stereo not drawn) [Example 251] | 1000 to 5000 | > 5000 |
| Cn1cc(-c2cccc(-c3ncc(-c4cnn(C)c4)c(NCC4(N)CCCCC4)n3)c2)cn1 [Example 252] | < 100 | 100 to 1000 |
| CC(=O)N1CCC(Nc2nc(-c3cccc(-c4cnn(C)c4)c3)ncc2-c2cnn(C)c2)CC1 [Example 255] | 100 to 1000 | 100 to 1000 |
| CC(=O)N1CCCCC1CCNc1nc(-c2cccc(-c3cnn(C)c3)c2)ncc1-c1cnn(C)c1 (stereo not drawn) [Example 258] | 100 to 1000 | > 5000 |
| Cn1cc(-c2cccc(-c3ncc(-c4cnn(C)c4)c(NCCC4CCCCN4S(C)(=O)=O)n3)c2)cn1 (stereo not drawn) [Example 259] | 100 to 1000 | > 5000 |
| Cn1cc(-c2cccc(-c3ncc(-c4cnn(C)c4)c(N4CCC(CO)C4)n3)c2)cn1 (stereo not drawn) [Example 261] | 100 to 1000 | 1000 to 5000 |
| Cn1cc(-c2cccc(-c3ncc(-c4cnn(C)c4)c(N[C@H]4CC[C@@H](N5CCOCC5)CC4)n3)c2)cn1 [Example 263] | 1000 to 5000 | > 5000 |
| Cn1cc(-c2cccc(-c3ncc(-c4cnn(C)c4)c(N4CCC(CN)C4)n3)c2)cn1 (stereo not drawn) [Example 264] | 1000 to 5000 | > 5000 |
| CC(Nc1nc(-c2cccc(-c3cnn(C)c3)c2)ncc1-c1cnn(C)c1)C1CCN(S(C)(=O)=O)CC1 (stereo not drawn) [Example 274] | 100 to 1000 | > 5000 |
| CC(=O)N1CCC(O)(CNc2nc(-c3cccc(-c4cnn(C)c4)c3)ncc2-c2cnn(C)c2)CC1 [Example 277] | 100 to 1000 | > 5000 |
